The text below walks through data of publication PMC3375280 (PLoS ONE, 2012).

As usually defined, the Kd is the concentration at which binding is half-saturated.

Changes are numbered by the printed parent chain.

Test [1] concerns the target T1, AT1 C76A/F110C/C289A mutant receptor (Rattus norvegicus, UniProt P25095, C289A/C76A/F110C).
T1 construct: expressed in transfected cells; host or cells: COS1
T1 sequence (P25095 1-359 C76A/F110C/C289A): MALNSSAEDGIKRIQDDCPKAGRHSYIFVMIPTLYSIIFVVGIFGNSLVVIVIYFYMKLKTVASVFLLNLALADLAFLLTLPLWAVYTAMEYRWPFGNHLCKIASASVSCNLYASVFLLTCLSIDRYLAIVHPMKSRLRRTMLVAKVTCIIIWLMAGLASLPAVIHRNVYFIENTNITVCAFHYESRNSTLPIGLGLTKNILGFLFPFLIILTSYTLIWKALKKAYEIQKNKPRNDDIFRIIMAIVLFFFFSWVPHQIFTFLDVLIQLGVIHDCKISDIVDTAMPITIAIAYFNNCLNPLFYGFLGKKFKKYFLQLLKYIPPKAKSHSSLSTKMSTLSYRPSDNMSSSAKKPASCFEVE
In words: competition binding, C76A/F110C/C289A mutant. As to conditions: for Kd ratio relative to WT (in parentheses): C76A/F110C/C289A / WT; for Kd: C76A/F110C/C289A, COS1 membranes, read-out: Binding affinity (Kd). How it is done: (§1) The Kd and Bmax values of receptor binding were determined by ^125I-[Sar^1, Ile^8] […] Membranes expressing the WT or mutant AT1 receptors were incubated with 100 pM ^125I-[Sar^1, Ile^8] […] The binding reaction was terminated by filtering the incubation mixture through Whatman GF/C glass filters, and the residues were extensively washed further with binding buffer. The bound ligand fraction was determined from the counts per minute (cpm) remaining on the membrane. Binding kinetics values were determined as previously described.

Test [2] concerns the target T2, AT1 S115A mutant receptor (Rattus norvegicus, UniProt P25095, S115A).
T2 construct: expressed in transfected cells; host or cells: COS1
T2 sequence (P25095 1-359 S115A): T1 sequence (P25095 1-359 C76A/F110C/C289A) with A76C, C110F, S115A, A289C
In words: competition binding, S115A mutant. As to conditions: for Kd ratio relative to WT (in parentheses): S115A / WT; for Kd: S115A, COS1 membranes, read-out: Binding affinity (Kd). How it is done: as §1

For test [3], the target named is T3, AT1 F110A mutant receptor (Rattus norvegicus, UniProt P25095, F110A).
T3 construct: expressed in transfected cells; host or cells: COS1
T3 sequence (P25095 1-359 F110A): T1 sequence (P25095 1-359 C76A/F110C/C289A) with A76C, C110A, A289C
In words: competition binding, F110A mutant. As to conditions: for Kd ratio relative to WT (in parentheses): F110A / WT; for Kd: F110A, COS1 membranes, read-out: Binding affinity (Kd). How it is done:
as §1

Test [4] concerns the target T4, AT1 S107A mutant receptor (Rattus norvegicus, UniProt P25095, S107A).
T4 construct: expressed in transfected cells; host or cells: COS1
T4 sequence (P25095 1-359 S107A): T1 sequence (P25095 1-359 C76A/F110C/C289A) with A76C, S107A, C110F, A289C
Kind of test: competition binding, S107A mutant. As to conditions: for Kd ratio relative to WT (in parentheses): S107A / WT; for Kd: S107A, COS1 membranes, read-out: Binding affinity (Kd). How it is done: as §1

The target in test [5] is T5, wild-type (WT) AT1 receptor (Rattus norvegicus, UniProt P25095).
T5 sequence (P25095 1-359): T1 sequence (P25095 1-359 C76A/F110C/C289A) with A76C, C110F, A289C
Kind of test: inositol phosphate (IP) production in COS1 cells expressing WT AT1 receptor. Particulars: 1 µM compound, vs basal IP production.
Description: The test compounds were added 1 h before the measurement of IP.
The WT and mutant AT1 receptors were transiently transfected into COS1 cells using Lipofectamine 2000 liposomal reagent (Roche Applied Science) according to the manufacturer’s instructions.
Cells expressing the WT and mutant AT1 receptors were incubated for 30 minutes at 22°C with or without the indicated concentrations of ARBs. The cells were washed-out once with the use of excess cold HBSS, and used in an IP production study. Total soluble IP was measured by the perchloric acid extraction method, as described previously [16].

Test [6] has as its target T6, AT1 A114G mutant receptor (Rattus norvegicus, UniProt P25095, A114G).
T6 construct: expressed in transfected cells; host or cells: COS1
T6 sequence (P25095 1-359 A114G): T1 sequence (P25095 1-359 C76A/F110C/C289A) with A76C, C110F, A114G, A289C
In words: competition binding, A114G mutant. As to conditions: for Kd ratio relative to WT (in parentheses): A114G / WT; for Kd: A114G, COS1 membranes, read-out: Binding affinity (Kd). How it is done:
as §1

Turning to `CCCc1nc(C(C)(C)O)c(C(=O)O)n1Cc1ccc(-c2ccccc2-c2nnn[nH]2)cc1` [Olmesartan, olmesartan, reference compound], the “Kd ratio relative to WT (in parentheses)” value is recorded as 2.9 fold in test [1]; 1.3 fold in test [2]; 1.1 fold in test [3]; 1.1 fold in test [4]; 1.7 fold in test [6]. The Kd in test [1] was 6.6 ± 2.4 nM; in test [2], 3.1 ± 1.7 nM; in test [3] it was 2.6 ± 0.5 nM; in test [4] it was 2.5 ± 0.5 nM; in test [6], 4 ± 1.4 nM. Also, in test [5], the “Pharmacological behaviour toward IP production (agonism / neutral antagonism / inverse agonism)” value is reported as “inverse agonist”.

As to `CCCc1nc(C(C)(C)O)c(C(N)=O)n1Cc1ccc(-c2ccccc2-c2nnn[nH]2)cc1` [R239470], the “Kd ratio relative to WT (in parentheses)” value in test [1] is 3.0 fold; in test [2] it was 1.6 fold; in test [3], 1.5 fold; in test [4] it was 1.6 fold; in test [6] it was 1.4 fold. Also, the Kd in test [1] worked out at 2.4 ± 1.1 nM; in test [2], 1.3 ± 0.4 nM; in test [3], 1.2 ± 0.3 nM; in test [4] it was 1.3 ± 0.2 nM; in test [6] it was 1.1 ± 0.1 nM. Further, the “Pharmacological behaviour toward IP production (agonism / neutral antagonism / inverse agonism)” value in test [5] is “neutral antagonist”.

On to `CCCc1nc(C(C)(C)O)c(C(N)=O)n1Cc1ccc(-c2cc(Cc3ccc(O)cc3)ccc2-c2nnn[nH]2)cc1` [R794847], for which the “Kd ratio relative to WT (in parentheses)” value is listed as 2.6 fold in test [1]; 3.1 fold in test [2]; 1.4 fold in test [3]; 1.2 fold in test [4]; 3.8 fold in test [6]. Also, the equilibrium dissociation constant (Kd) in test [1] came to 126 ± 13 nM; in test [2] it was 150 ± 41 nM; in test [3] it was 68 ± 19 nM; in test [4], 59 ± 27 nM; in test [6] it was 183 ± 17 nM. The “Pharmacological behaviour toward IP production (agonism / neutral antagonism / inverse agonism)” value in test [5] was “agonism”.
